Measurements taken from patent US20260256909A1, “COMBINATION OF A BTN3A ACTIVATING ANTIBODY, A BCL2 INHIBITOR AND HYPOMETHYLATING AGENT FOR USE IN TREATING CANCER” (Imcheck Therapeutics, priority 2022, published 2026).

What was measured:
Assay type in all cases: cell-based, human
[1] = test system: Vγ9Vδ2 T cells; experiment: Survival of Vγ9Vδ2 T cells in HD-PBMC (Caspase3/7 and dead cell marker, flow cytometry); conditions: for reduced survival of Vγ9Vδ2 T cells compared to no Venetoclax condition: simultaneous treatment with ICT01 1 μg/mL
Experimental: The effect of ICT01 on the survival of Vγ9Vδ2 T cells upon treatment with Bcl-2 family member inhibitors was assessed in Peripheral Blood Mononuclear Cells from Healthy Donors (HD-PBMC) using the apoptotic marker Caspase3/7 and a dead cell marker in flow cytometry analysis.
(§1) Peripheral Blood Mononuclear Cells (PBMC) were isolated by Ficoll density gradient centrifugation of peripheral blood (EDTA-buffy coats) from healthy donors (HD, n=4-6), cultured in PBMC medium (RPMI 1640 Medium supplemented with 10% Fetal Bovine Serum (FBS), 1% Penicillin/Streptomycin and 1 mM Sodium Pyruvate) and treated with ICT01 or its isotype control (hIgG1S) used at 1 μg/mL in the presence or absence of increasing concentrations of Venetoclax (0-0.1 μM), 5-Azacytidine (0-0.4 μM) or the combination, or ABT-737 (0-1.875 μM), Navitoclax (0-1.875 μM) or MIK665 (0-1.875 μM). Cells were harvested on day 2, centrifuged at 1800 rpm for 5 minutes and then incubated 10 minutes at room temperature (RT) with 25 μl of FcR blocking reagent (Miltenyi Biotec) before adding 25 μL of the following antibody mix prepared in PBS+2% FBS+2 mM EDTA (FACS buffer): anti-CD4-BUV395, CD56-BV421, Vd2-PE, CD3-PE-CF594 and CD8-A700 antibodies for the identification of immune subsets, anti-CD25-BV650 and CD69-APC antibodies were added to monitor activation status of Vγ9Vδ2 T cells, and a viability marker (LIVE/DEAD™ Fixable Dead Cell Stain) was added to distinguish live from dead cells. Cells were incubated 20 minutes at room temperature (RT) and washed 2 times with FACS buffer. A Caspase3/7 Green detection reagent (ThermoFisher) was added to determine apoptosis and cells were incubated for 30 minutes at RT before flow cytometry analysis.
In a similar experiment, freshly isolated PBMC were stimulated with ICT01 or its isotype control hIgG1S for 1 day prior to a 2 day-treatment with Venetoclax (FIG. 3a). The number of live Vγ9Vδ2 T cells was assessed by flow cytometry at the end of the incubation time.

[2] = test system: Vγ9Vδ2 T cells; experiment: Phenotypic activation of Vγ9Vδ2 T cells in HD-PBMC (CD69/CD25 expression, flow cytometry); conditions: for activation of Vγ9Vδ2 T cells by ICT01 (CD25 expression): HD-PBMC treated one day with Venetoclax (0-0.1 μM), 5-Azacytidine (0-0.4 μM) prior to ICT01 for two days; for effect on the ICT01-induced upregulation of CD25 by Vγ9Vδ2 T cells: day 4, together with ICT01 1 μg/mL, Venetoclax 0-0.1 μM, 5-Azacytidine 0-0.4 μM
Experimental: as §1
ICT01-induced phenotypic activation of Vγ9Vδ2 T cells is indicated by the upregulation of CD25. Therefore, human PBMC from healthy donors (HD, n=6) were cultured with ICT01 or its isotype control (hIgG1S) used at 1 μg/mL in the presence or absence of increasing concentrations of Venetoclax (0-0.1 μM), 5-Azacytidine (0-0.4 μM) or the combination in PBMC medium (RPMI 1640 Medium supplemented with 10% FBS, 1% Penicillin/Streptomycin and 1 mM Sodium Pyruvate). Cells were harvested on day 4, centrifuged at 1800 rpm for 5 minutes and then incubated 10 minutes at room temperature (RT) with 25 μl of FcR blocking reagent (Miltenyi Biotec) before adding 25 μL of the following antibody mix prepared in PBS+2% FBS+2 mM EDTA (FACS buffer): anti-CD4-BV650, CD56-FITC, Vd2-PE, CD3-PE-CF594 and CD8-A700 antibodies for the identification of immune subsets, an anti-CD25-BV650 antibody was added to monitor activation status, and a viability marker (LIVE/DEAD™ Fixable Dead Cell Stain) was added to distinguish live from dead cells. Cells were incubated 20 minutes at 4° C. and washed 2 times in FACS buffer before flow cytometry analysis.
In a similar experiment, freshly isolated healthy donor-derived PBMC were treated with increasing concentrations of Venetoclax (0-0.1 μM), 5-Azacytidine (0-0.4 μM) or the combination for one day prior to stimulation with ICT01 or its isotype control hIgG1S for two days. Again, activation of Vγ9Vδ2T cells by ICT01 was unaffected by Venetoclax and 5-Azacytidine treatment, as indicated by the similar induction of CD25 expression in all conditions tested (Figure b).

[3] = test system: Vγ9Vδ2 T cells; experiment: Expression of activating and inhibitory receptors by Vγ9Vδ2 T cells in HD-PBMC; conditions: for effect on ICT01-induced expression of activating and inhibitory receptors on Vγ9Vδ2 T cells: day 5, Venetoclax 0-0.1 μM, 5-Azacytidine 0-0.4 μM
Experimental: Vγ9Vδ2 T cell functions are tightly regulated by activating (NKG2D and DNAM-1) and inhibitory receptors (PD-1, NKG2A, BTLA, TIM3). To assess the impact of Venetoclax and 5-Azacytidine treatment on the expression of these receptors by Vγ9Vδ2 T cells, frozen human PBMC from healthy donors (HD, n=6) were thawed and treated with ICT01 or its isotype control (hIgG1S) used at 1 μg/mL in the presence or absence of increasing concentrations of Venetoclax (0-0.1 μM), 5-Azacytidine (0-0.4 μM) or the combination in PBMC medium (RPMI 1640 Medium supplemented with 10% FBS, 1% Penicillin/Streptomycin, 1 mM Sodium Pyruvate and 50 IU/mL IL2). Cells were harvested on day 5, centrifuged at 1800 rpm for 5 minutes and then incubated 10 minutes at RT with 25 μl of FcR blocking reagent (Miltenyi Biotec) before adding 25 μL of the following antibody mix prepared in PBS+2% FBS+2 mM EDTA (FACS buffer): anti-CD4-BUV395, Vδ2-PE, CD3-PE-CF594 and CD8-A700 antibodies for the identification of immune subsets, anti-BTLA-BV421, PD1-BV650, DNAM-1-BV785, TIM3-BB515, NKG2A-PE-Vio770 and NKG2D-APC antibodies for the detection of inhibitory and activating receptors, and a viability marker (LIVE/DEAD™ Fixable Dead Cell Stain) was added to distinguish live from dead cells. Cells were incubated 20 minutes at 4° C. and washed 2 times in FACS buffer before flow cytometry analysis.

[4] = 0.01 μM Venetoclax, HD-PBMC, 48 h
[5] = 0.1 μM Venetoclax, HD-PBMC, 48 h

Row | Compound | effect on the survival of Vγ9Vδ2 T cells ([1]; HD-PBMC, 48 h, 5-Azacytidine 0-0.4 μM) | activation of Vγ9Vδ2 T cells by ICT01 (CD25 expression) [2] | effect on the ICT01-induced upregulation of CD25 by Vγ9Vδ2 T cells ([2]; HD-PBMC) | effect on ICT01-induced expression of activating and inhibitory receptors on Vγ9Vδ2 T cells [3] | reduction of live cells (Vγ9Vδ2 T cells) compared to no Venetoclax condition [1, 4] | reduced survival of Vγ9Vδ2 T cells compared to no Venetoclax condition [1, 4] | reduction of live cells (Vγ9Vδ2 T cells) compared to no Venetoclax condition [1, 5] | reduced survival of Vγ9Vδ2 T cells compared to no Venetoclax condition [1, 5] | Venetoclax induced cell death of Vγ9Vδ2 T cells ([1]; PBMC stimulated with ICT01 for 1 day prior to a 2 day-treatment with Venetoclax, vs hIgG1S) | activation of Vγ9Vδ2 T cells: expression of CD69 and CD25 ([2]; HD-PBMC, 2 days, ICT01 1 μg/mL, compared to hIgG1S) | expression of activating (NKG2D, DNAM-1) and inhibitory receptors (PD-1, NKG2A, BTLA, TIM3) on Vγ9Vδ2 T cells ([3]; day 5, ICT01 1 μg/mL, 50 IU/mL IL2)
1 | Nc1ncn([C@@H]2O[C@H](CO)[C@@H](O)[C@H]2O)c(=O)n1 [5-Azacytidine, 4-amino-1-[(2R,3R,4S,5R)3,4-dihydroxy-5-(hydroxymethyl)oxolan-2-yl]-1,3,5-triazin-2-one] | no effect | unaffected | no effect | unaffected |  |  |  |  |  |  | 
2 | CC1(C)CCC(CN2CCN(c3ccc(C(=O)NS(=O)(=O)c4ccc(NCC5CCOCC5)c([N+](=O)[O-])c4)c(Oc4cnc5[nH]ccc5c4)c3)CC2)=C(c2ccc(Cl)cc2)C1 [Venetoclax, 4-[4-[[2-(4-chlorophenyl)-4,4-dimethylcyclohexen-1-yl]methyl]piperazin-1-yl]-N-[3-nitro-4-(oxan-4-ylmethylamino)phenyl]sulfonyl-2-(1H-pyrrolo[2,3-b]pyridin-5-yloxy)benzamide] |  | unaffected | no effect | unaffected | ~ 29% | ~ 11% | ~ 49% | ~ 30% |  |  | 
3 | ICT01: humanized BTN3A activating antibody of mAb 7.2, heavy chain SEQ ID NO: 4, light chain SEQ ID NO: 6, silent IgG1 L247F/L248E/P350S |  |  |  |  |  |  |  |  | significantly reduced | increased expression of CD69 and CD25 | increased expression
